Reference: PubChem BioAssay AID2060888 (Molecular Pharmacology Branch, DTP, NCI, 2025)

Tested on: 695427-040-R-J1-PDC complex spheroid viability
Assay: Anticancer human tumor 695427-040-R-J1-PDC patient-derived colon adenocarcinoma cell line growth inhibition [RAS]
Settings: for IC50: curve of first compound; for viability, T/C: stronger effect = lower value
In short: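 Multi-cell-type spheroids: tumor cells plus HUVEC endothelial cells and mesenchymal stem cells. RAS-pathway inhibitors were combined with targeted agents, each dosed in half-log steps down from clinical Cmax, or from 10 microM when Cmax was unknown.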

[1] = second compound 0.0316 µM, first compound 0.0316 µM
[2] = second compound 0.0316 µM, first compound 0.1 µM
[3] = second compound 0.0316 µM, first compound 0.316 µM
[4] = second compound 0.0316 µM, first compound 1 µM
[5] = second compound 0.0316 µM, first compound 3.16 µM
[6] = second compound 0.0316 µM, first compound 10 µM
[7] = second compound 0.1 µM, first compound 0.0316 µM
[8] = second compound 0.1 µM, first compound 0.1 µM
[9] = second compound 0.1 µM, first compound 0.316 µM
[10] = second compound 0.1 µM, first compound 1 µM
[11] = second compound 0.1 µM, first compound 3.16 µM
[12] = second compound 0.1 µM, first compound 10 µM
[13] = second compound 0.316 µM, first compound 0.0316 µM
[14] = second compound 0.316 µM, first compound 0.1 µM
[15] = second compound 0.316 µM, first compound 0.316 µM
[16] = second compound 0.316 µM, first compound 1 µM
[17] = second compound 0.316 µM, first compound 3.16 µM
[18] = second compound 0.316 µM, first compound 10 µM
[19] = second compound 1 µM, first compound 0.0316 µM
[20] = second compound 1 µM, first compound 0.1 µM
[21] = second compound 1 µM, first compound 0.316 µM
[22] = second compound 1 µM, first compound 1 µM
[23] = second compound 1 µM, first compound 3.16 µM
[24] = second compound 1 µM, first compound 10 µM
[25] = second compound 3.16 µM, first compound 0.0316 µM
[26] = second compound 3.16 µM, first compound 0.1 µM
[27] = second compound 3.16 µM, first compound 0.316 µM
[28] = second compound 3.16 µM, first compound 1 µM
[29] = second compound 3.16 µM, first compound 3.16 µM
[30] = second compound 3.16 µM, first compound 10 µM
[31] = second compound 10 µM, first compound 0.0316 µM
[32] = second compound 10 µM, first compound 0.1 µM
[33] = second compound 10 µM, first compound 0.316 µM
[34] = second compound 10 µM, first compound 1 µM
[35] = second compound 10 µM, first compound 3.16 µM
[36] = second compound 10 µM, first compound 10 µM
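Further: viability read after seven days of drug exposure.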
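Wherever viability, T/C is given: 100% = DMSO vehicle control viability.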

In the case of `CC1(O)CCCC1n1c(=O)c(C(F)F)cc2cnc(NC3CCN(S(C)(=O)=O)CC3)nc21` (centres undefined) + C#Cc1c(F)ccc2cc(O)cc(-c3ncc4c(N5CC6CCC(C5)N6)nc(OCC56CCCN5CC(F)C6)nc4c3F)c12, the IC50 (second compound 0.0316 µM) is reported as over 10 µM, the IC50 (second compound 0.1 µM) is reported as over 10 µM and the IC50 (second compound 0.316 µM) is reported as 8.96 µM. It also gave an IC50 (second compound 1 µM) of 7.32 µM, an IC50 (second compound 3.16 µM) of 4.29 µM and an IC50 (second compound 10 µM) of under 0.0316 µM. It also gave a viability, T/C [1] of 95.4%, a viability, T/C [2] of 95.5% and a viability, T/C [3] of 103%. It also gave a viability, T/C [4] of 123%, a viability, T/C [5] of 122% and a viability, T/C [6] of 57.4%. It also gave a viability, T/C [7] of 104%, a viability, T/C [8] of 94.7% and a viability, T/C [9] of 109%. For the same compound, the viability, T/C [10] was 120%, the viability, T/C [11] was 114% and the viability, T/C [12] was 52.5%. It also gave a viability, T/C [13] of 84%, a viability, T/C [14] of 80.6% and a viability, T/C [15] of 97.6%. The viability, T/C [16] was 103%, the viability, T/C [17] was 104% and the viability, T/C [18] was 45.4%. The viability, T/C [19] was 82.7%, the viability, T/C [20] was 75.3% and the viability, T/C [21] was 78.7%. For the same compound, the viability, T/C [22] was 89.8%, the viability, T/C [23] was 84.2% and the viability, T/C [24] was 38.1%. For the same compound, the viability, T/C [25] was 59.7%, the viability, T/C [26] was 54.7% and the viability, T/C [27] was 64.3%. For the same compound, the viability, T/C [28] was 57.4%, the viability, T/C [29] was 57.3% and the viability, T/C [30] was 30%. It also gave a viability, T/C [31] of 42.9%, a viability, T/C [32] of 41.9% and a viability, T/C [33] of 42.1%. It also gave a viability, T/C [34] of 43.4%, a viability, T/C [35] of 36.1% and a viability, T/C [36] of 15.6%.
With `Cc1nc(N2CCC3(CC2)COC(C)C3N)c(CO)nc1Sc1ccnc(N)c1Cl` (centres undefined) + C#Cc1c(F)ccc2cc(O)cc(-c3ncc4c(N5CC6CCC(C5)N6)nc(OCC56CCCN5CC(F)C6)nc4c3F)c12 the IC50 (second compound 0.0316 µM) was over 10 µM, the IC50 (second compound 0.1 µM) was over 10 µM and the IC50 (second compound 0.316 µM) was 1.98 µM. It also gave an IC50 (second compound 1 µM) of 0.477 µM, an IC50 (second compound 3.16 µM) of 0.0363 µM and an IC50 (second compound 10 µM) of under 0.0316 µM. For the same compound, the viability, T/C [1] was 92.3%, the viability, T/C [2] was 80.5% and the viability, T/C [3] was 70.7%. The viability, T/C [4] was 75%, the viability, T/C [5] was 70.5% and the viability, T/C [6] was 51.1%. The viability, T/C [7] was 89.2%, the viability, T/C [8] was 78.1% and the viability, T/C [9] was 79.2%. For the same compound, the viability, T/C [10] was 60.9%, the viability, T/C [11] was 60.2% and the viability, T/C [12] was 51.9%. For the same compound, the viability, T/C [13] was 78.7%, the viability, T/C [14] was 66.2% and the viability, T/C [15] was 56.7%. For the same compound, the viability, T/C [16] was 57.1%, the viability, T/C [17] was 50.5% and the viability, T/C [18] was 39.2%. For the same compound, the viability, T/C [19] was 65.8%, the viability, T/C [20] was 63.2% and the viability, T/C [21] was 51.2%. The viability, T/C [22] was 42.1%, the viability, T/C [23] was 40.4% and the viability, T/C [24] was 26%. For the same compound, the viability, T/C [25] was 51.3%, the viability, T/C [26] was 44% and the viability, T/C [27] was 38.1%. It also gave a viability, T/C [28] of 32.6%, a viability, T/C [29] of 23.5% and a viability, T/C [30] of 16.2%. It also gave a viability, T/C [31] of 33.2%, a viability, T/C [32] of 27.7% and a viability, T/C [33] of 27.3%. It also gave a viability, T/C [34] of 18.6%, a viability, T/C [35] of 15.8% and a viability, T/C [36] of 10.3%.
